Read-outs that look alike come from different tables or passages of the source.
What was measured:
[1] = system: human breast cancer cell line MCF7; experiment: In vitro anti-cancer cell experiment (MTT), breast cancer MCF7; type: cell-based
Description: (§1) Cell lines: Human pancreatic cancer cell line Panc-1, human colorectal cancer cell line HT29, human lung cancer cell line NCI-H460 and human breast cancer cell line MCF7; the medium: s DMEM (Gibco BRL), containing 10% fetal calf serum (Gibco BRL) and 2 mM L-glutamine (Gibco BRL).
(§2) The samples were dissolved in dimethyl sulfoxide (DMSO, Sigma, United States) and medium was added to the final concentration of 0.5%. cyclophosphamide was as positive control (CTX, purity>96%).
(§3) Method: cells were digested with trypsin and dispersed into single cells in the medium containing penicillin (25 U/ml) and streptomycin (25 μg/ml). The cells were seeded in 96-well culture plates (Corning Incorporated), at 37° C., with 5% CO2 present for 24 hours. The culture medium was removed, 1-100 μm test compounds were added, cultured for 48 hours. Culture medium was removed and […] (MTT, USA Sigma products) was added. The result was assayed by SK601-based microplate reader (Japan Seikagaku company's products), 570 nm/630 nm optical density (OD). Cell viability determined by the formula: (Experimental group OD/control OD)×100%; CDDP and the positive control subjects treated in the same material simultaneously.

[2] = system: Human pancreatic cancer cell line Panc-1; experiment: In vitro anti-cancer cell experiment (MTT), pancreatic cancer Panc-1; type: cell-based
Description: as §1, §2, §3

[3] = system: human lung cancer cell line NCI-H460; experiment: In vitro anti-cancer cell experiment (MTT), lung cancer NCI-H460; type: cell-based
Description: as §1, §2, §3

[4] = Body weight of S180 tumor-bearing mice
Description: (§4) Xenografts cultured S180 tumor cells were implanted subcutaneously into the flank region of mice and tumors were allowed to grow to the desired average size of 100 mg. The mice were randomized into control and treatment groups with 10 mice per group. The control group was injected with the vehicle used to dissolve the drug. […] Injections were I.V. via the tailvein.
(§5) The test group inoculated tumor cells […] in mice armpit, administration and observation of seven days.

[5] = system: human colorectal cancer cell line HT29; experiment: In vitro anti-cancer cell experiment (MTT), colorectal cancer HT29; type: cell-based
Description: as §1, §2, §3

[6] = system: mice sarcoma S180; experiment: Inhibition of the sarcoma growth S180 in mice; type: in vivo; conditions: for anti-tumor efficacy in vivo: iv; for inhibition compared with positive control cyclophosphamide / inhibition rate compared with positive control 5-FU: by tumor weight, seven days
Description: Tumor strains: mice sarcoma S180 for ascites passaged from Beijing Academy of Military Medical Institute of Pharmacology.
as §4, §5

[7] = MCF7, 48 h, read-out: IC50 with 95% confidence limits, inhibitory effect on breast cancer MCF7 cells
[8] = MCF7 cells, 48 hours, MTT, read-out: IC50 Breast cancer MCF7
[9] = Panc-1 cells, 48 hours, MTT, read-out: IC50 Pancreatic cancer Panc-1
[10] = Panc-1 cells, 48 hours, MTT, value (95% confidence limits), read-out: IC50 and 95% confidence limits, anti-proliferative effect on Panc-1
[11] = NCI-H460 cells, 48 hours, MTT, read-out: IC50 Lung cancer NCI-H460
[12] = NCI-H460 cells, 48 hours, MTT, value (95% confidence limits), unit given only for CTX, read-out: IC50 and 95% confidence limits, inhibitory effect on lung cancer NCI-H460 cells
[13] = HT-29, HT29 cells, 48 hours, MTT, value (95% confidence limits), read-out: IC50 and 95% confidence limit, anti-proliferative effect on HT29
[14] = HT-29 cells, 48 hours, MTT, read-out: IC50 Colorectal cancer HT-29
[15] = MCF7 cells, 48 hours, MTT, value (95% confidence limits), unit given only for CTX, read-out: IC50 with 95% confidence limits, inhibitory effect on breast cancer MCF7 cells

Row | IC50 [1, 8] [µM] | IC50 [2, 9] [µM] | IC50 [2, 10] [mg/L] | IC50 [3, 11] [µM] | IC50 [3, 12] [mg/L] | IC50 [5, 13] [mg/L] | IC50 [5, 14] [µM] | IC50 [1, 15] [mg/L] | SMILES | body Weight/g After ad. ([4]; mouse, in vivo, iv) [g] | body Weight/g Before ad. ([4]; mouse, in vivo, iv) [g] | anti-tumor efficacy in vivo [6] | inhibition compared with positive control cyclophosphamide [6] | inhibition rate compared with positive control 5-FU [6] | other results
1 | – | – | – | – | – | – | – | – | O=P1(N(CCCl)CCCl)NCCCO1 (centres unmarked) [CTX, cyclophosphamide] | – | – | – | – | – | IC50 ([1]; MCF7, 48 h, read-out: IC50 Breast cancer MCF7): 0.92 µM; IC50 [1, 7]: 0.92 mg/L; IC50 ([2]; PANC-1, 48 h, read-out: IC50 Pancreatic cancer Panc-1): 2.23 µM; IC50 ([2]; PANC-1, 48 h, read-out: IC50 and 95% confidence limits, anti-proliferative effect on Panc-1): 2.23 mg/L; IC50 ([3]; NCI-H460, 48 h, read-out: IC50 Lung cancer NCI-H460): 4.3 µM; IC50 ([3]; NCI-H460, 48 h, read-out: IC50 and 95% confidence limits, inhibitory effect on lung cancer NCI-H460 cells): 4.3 mg/L; body Weight/g After ad. ([4]; after administration, iv, seven days, X ± SD): 28.22 ± 2.46 g; body Weight/g Before ad. ([4]; before administration (baseline), iv groups, X ± SD): 22.45 ± 0.79 g; IC50 ([5]; HT-29, 48 h, read-out: IC50 Colorectal cancer HT-29): 2.26 µM; IC50 ([5]; HT-29, 48 h, read-out: IC50 and 95% confidence limit, anti-proliferative effect on HT29): 2.26 mg/L
2 | 2.73 | 2.42 | 2.42 | 22 | 22 | 3.92 | 3.92 | 2.73 | CC(N)C12CC3CC(CC(C3)C1)C2 (centres unmarked) [Compound 2, Rimantadine] | 26.02 ± 3.69 | 19.35 ± 0.95 | statistically significant | significantly better than the positive control group of cyclophosphamide | better than the positive control group, 5-FU | –
3 | 34.3 | 53 | 53 | 60.5 | 60.5 | 13.1 | 13.1 | 34.3 | CC12CC3CC(C)(C1)CC(N)(C3)C2 [Compound 3, Memantine] | 28.98 ± 1.74 | 21.31 ± 1.53 | statistically significant | significantly better than the positive control group of cyclophosphamide | better than the positive control group, 5-FU | –
4 | 67.5 | 10 | 10 | 8.52 | 8.52 | 10.2 | 10.2 | 67.5 | CN(C)CCOCC(=O)NC12CC3CC(CC(C3)C1)C2 [Compound 4, Tromantadine] | 28.64 ± 4.13 | 21.03 ± 0.29 | statistically significant | – | better than the positive control group, 5-FU | –
5 | – | 2.17 | 2.17 | 2.81 | 2.81 | 0.85 | 0.85 | – | COc1ccc(-c2ccc3cc(C(=O)O)ccc3c2)cc1C12CC3CC(CC(C3)C1)C2 [Compound 5, Adapalene] | 20.80 ± 3.61 | 20.27 ± 1.80 | statistically significant | significantly better than the positive control group of cyclophosphamide | better than the positive control group, 5-FU | –
6 | – | – | – | – | – | – | – | – | O=c1[nH]cc(F)c(=O)[nH]1 [Compound 5-FU, 5-fluorouracil] | 29.16 ± 2.50 | 21.61 ± 1.56 | – | – | – | –
7 | – | 53.5 | 53.5 | – | – | – | – | – | O=C1C2CC3CC1CC(O)(C3)C2 [Compound 6, Idramantone] | 26.30 ± 3.62 | 19.92 ± 1.47 | statistically significant | – | – | –

Row | SMILES | IC50 [1, 8] [µM] | IC50 [2, 9] [µM] | IC50 [2, 10] [mg/L] | IC50 [3, 11] [µM] | IC50 [3, 12] [mg/L] | IC50 [5, 13] [mg/L] | IC50 [5, 14] [µM] | IC50 [1, 15] [mg/L] | body Weight/g After ad. ([4]; mouse, in vivo, iv) [g] | body Weight/g Before ad. ([4]; mouse, in vivo, iv) [g] | anti-tumor efficacy in vivo [6] | inhibition compared with positive control cyclophosphamide [6] | inhibition rate compared with positive control 5-FU [6] | other results
8 | NC12CC3CC(CC(C3)C1)C2 [Compound 1, Amantadine] | 6.18 | 51.3 | 51.3 | 5.18 | 5.18 | 18.8 | 18.8 | – | 27.93 ± 3.37 | 21.41 ± 2.52 | statistically significant | – | – | IC50 [1, 7]: 6.18 mg/L

Source: patent US20130072553A1, “DRUGS, DERIVATIVES AND ANALOGS CONTAINING ADAMANTANE STRUCTURES OF NEW INDICATION APPLICATIONS OF ANTI-TUMOR” (priority 2009, published 2013)
